According to publication PMC3383692, “Characterization of Plasmodium falciparum Adenylyl Cyclase-β and Its Role in Erythrocytic Stage Parasites” (PLoS ONE, 2012):
Read-outs that look alike come from different tables or passages of the source. Values belong to the molecule of their own block, whether it stands above or below them.

How the values were obtained:
[1] = target: T1, PfACβ (adenylyl cyclase-β) (Plasmodium falciparum, UniProt C0H4R1); experiment: radioactive two-column adenylyl cyclase assay with purified GST-PfACβ[…]-785; type: biochemical
T1 construct: gene PF3D7_0802600; GST-PfACβ1-785 (catalytic domains, AA 1–785)
T1 sequence (C0H4R1 1-785): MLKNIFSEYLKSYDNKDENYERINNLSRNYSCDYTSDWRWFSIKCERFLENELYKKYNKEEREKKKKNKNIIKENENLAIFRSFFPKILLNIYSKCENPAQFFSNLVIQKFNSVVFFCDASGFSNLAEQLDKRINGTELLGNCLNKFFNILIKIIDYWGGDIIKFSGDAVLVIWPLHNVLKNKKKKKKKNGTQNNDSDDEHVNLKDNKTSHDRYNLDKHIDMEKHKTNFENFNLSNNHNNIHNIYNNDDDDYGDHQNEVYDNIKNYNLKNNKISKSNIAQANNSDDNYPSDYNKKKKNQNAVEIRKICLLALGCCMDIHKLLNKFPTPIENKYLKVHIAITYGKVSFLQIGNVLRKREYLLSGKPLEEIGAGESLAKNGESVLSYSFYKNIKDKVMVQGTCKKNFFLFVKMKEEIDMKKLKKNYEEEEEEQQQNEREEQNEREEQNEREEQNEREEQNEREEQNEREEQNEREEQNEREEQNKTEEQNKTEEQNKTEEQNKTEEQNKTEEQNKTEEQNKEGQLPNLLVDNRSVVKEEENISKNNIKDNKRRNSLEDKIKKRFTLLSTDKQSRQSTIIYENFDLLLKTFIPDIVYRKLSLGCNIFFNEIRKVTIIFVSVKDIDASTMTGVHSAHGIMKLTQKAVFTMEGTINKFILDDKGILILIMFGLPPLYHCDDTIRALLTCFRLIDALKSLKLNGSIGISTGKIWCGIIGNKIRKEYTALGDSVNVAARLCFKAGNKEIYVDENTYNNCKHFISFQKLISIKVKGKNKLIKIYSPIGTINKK

PfACα = target: T2, PfACα (Plasmodium falciparum, UniProt Q8I7A1); experiment: adenylyl cyclase activity in PfACα-expressing Hi5 cells, […] 2-CE; type: cell-based
T2 construct: gene ac1
T2 sequence (Q8I7A1 1-884): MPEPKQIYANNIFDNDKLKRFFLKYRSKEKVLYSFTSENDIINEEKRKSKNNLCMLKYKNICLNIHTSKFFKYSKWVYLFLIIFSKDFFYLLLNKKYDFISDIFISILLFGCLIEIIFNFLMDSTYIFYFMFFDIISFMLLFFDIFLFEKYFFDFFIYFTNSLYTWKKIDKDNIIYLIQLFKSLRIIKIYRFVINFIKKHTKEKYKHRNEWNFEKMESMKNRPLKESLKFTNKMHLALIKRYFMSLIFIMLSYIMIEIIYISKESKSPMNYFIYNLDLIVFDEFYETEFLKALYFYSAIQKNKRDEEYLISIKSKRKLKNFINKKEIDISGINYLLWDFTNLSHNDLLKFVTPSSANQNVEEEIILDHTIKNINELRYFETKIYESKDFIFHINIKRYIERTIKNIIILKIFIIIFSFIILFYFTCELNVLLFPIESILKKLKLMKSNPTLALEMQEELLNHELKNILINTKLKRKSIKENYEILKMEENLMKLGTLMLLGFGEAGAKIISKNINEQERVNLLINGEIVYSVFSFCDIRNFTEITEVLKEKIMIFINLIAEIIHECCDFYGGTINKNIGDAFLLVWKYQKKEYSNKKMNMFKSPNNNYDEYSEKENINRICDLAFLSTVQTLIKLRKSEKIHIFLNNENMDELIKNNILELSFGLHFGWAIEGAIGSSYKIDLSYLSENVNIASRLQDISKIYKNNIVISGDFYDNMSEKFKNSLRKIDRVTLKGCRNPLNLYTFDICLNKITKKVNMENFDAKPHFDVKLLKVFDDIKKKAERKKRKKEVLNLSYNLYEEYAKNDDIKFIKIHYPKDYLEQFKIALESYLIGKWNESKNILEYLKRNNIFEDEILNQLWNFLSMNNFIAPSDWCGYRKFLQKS

[2] = substrate: Nc1ncnc2c1ncn2[C@@H]1O[C@H](COP(=O)(O)OP(=O)(O)OP(=O)(O)O)[C@@H](O)[C@H]1O; experiment: Michaelis-Menten kinetics (Km), adenylyl cyclase assay with purified enzyme; type: biochemical, Plasmodium falciparum; conditions: Mn2+ active site; lack of cooperative binding of substrate

- IC50 ([1]; read-out: IC50): 5 µM
Molecule: CC(Sc1nc2ccccc2[nH]1)C(=O)N/N=C/c1cc(Br)ccc1O (racemic) [KH7]

Molecule: C[C@]12CC[C@@H]3c4cc(O)c(O)cc4CC[C@H]3[C@@H]1CC[C@@H]2O [2-CE, 2-hydroxyestradiol]
- adenylyl cyclase activity in PfACα-expressing Hi5 cells, 50 μM 2-CE (PfACα): although PfACα adenylyl cyclase activity was inhibited by 2-CE, it was largely insensitive to KH7 (Figure 4C)
- IC50 [1]: 8 µM

Molecule: KH7.15
- IC50 ([1]; read-out: IC50): 150 µM

B1: PfACβ (adenylyl cyclase-β) (Plasmodium falciparum 3D7) (protein)
chain: MLKNIFSEYLKSYDNKDENYERINNLSRNYSCDYTSDWRWFSIKCERFLENELYKKYNKEEREKKKKNKNIIKENENLAIFRSFFPKILLNIYSKCENPAQFFSNLVIQKFNSVVFFCDASGFSNLAEQLDKRINGTELLGNCLNKFFNILIKIIDYWGGDIIKFSGDAVLVIWPLHNVLKNKKKKKKKNGTQNNDSDDEHVNLKDNKTSHDRYNLDKHIDMEKHKTNFENFNLSNNHNNIHNIYNNDDDDYGDHQNEVYDNIKNYNLKNNKISKSNIAQANNSDDNYPSDYNKKKKNQNAVEIRKICLLALGCCMDIHKLLNKFPTPIENKYLKVHIAITYGKVSFLQIGNVLRKREYLLSGKPLEEIGAGESLAKNGESVLSYSFYKNIKDKVMVQGTCKKNFFLFVKMKEEIDMKKLKKNYEEEEEEQQQNEREEQNEREEQNEREEQNEREEQNEREEQNEREEQNEREEQNEREEQNKTEEQNKTEEQNKTEEQNKTEEQNKTEEQNKTEEQNKEGQLPNLLVDNRSVVKEEENISKNNIKDNKRRNSLEDKIKKRFTLLSTDKQSRQSTIIYENFDLLLKTFIPDIVYRKLSLGCNIFFNEIRKVTIIFVSVKDIDASTMTGVHSAHGIMKLTQKAVFTMEGTINKFILDDKGILILIMFGLPPLYHCDDTIRALLTCFRLIDALKSLKLNGSIGISTGKIWCGIIGNKIRKEYTALGDSVNVAARLCFKAGNKEIYVDENTYNNCKHFISFQKLISIKVKGKNKLIKIYSPIGTINKK
notes: GST-PfACβ1-785 (catalytic domains, AA 1–785)
- Km [2]: 570 µM
